Results from paper PMC7753147, “High-throughput determination of protein affinities using unmodified peptide libraries in nanomolar scale” (iScience, 2020).

Legend:
[1] = tested on: native geph; experiment: µSPOT peptide microarray binding assay with native geph from mouse brain lysate; details: µSPOT peptide microarray, GlyRβ full positional scan, native geph from mouse brain lysate; intensity normalised to wild-type sequence DLRSNDFSIVGSLPR (=1)
[2] = tested on: gephE; experiment: µSPOT peptide microarray binding assay with recombinant gephE; details: µSPOT peptide microarray, GlyRβ full positional scan, recombinant gephE; intensity normalised to wild-type sequence DLRSNDFSIVGSLPR (=1)
[3] = tested on: FL-geph; experiment: µSPOT peptide microarray binding assay with full-length geph; details: µSPOT peptide microarray, GlyRβ full positional scan, intensity normalised to wild-type sequence DLRSNDFSIVGSLPR (=1)

| Sequence | Native geph Binding Intensity [norm.] [1] | gephE Binding Intensity [norm.] [2] | Fl-geph Binding Intensity [norm.] [3] |
| --- | --- | --- | --- |
| DLRINDFSIVGSLPR [GlyRβ_Full_Positional_Scan_063] | 1.05 norm. | 0.92 norm. | 0.91 norm. |
| DLRKNDFSIVGSLPR [GlyRβ_Full_Positional_Scan_074] | 1.05 norm. | 0.92 norm. | 0.94 norm. |
| DLRLNDFSIVGSLPR [GlyRβ_Full_Positional_Scan_064] | 0.88 norm. | 0.9 norm. | 0.89 norm. |
| DLRMNDFSIVGSLPR [GlyRβ_Full_Positional_Scan_078] | 1.07 norm. | 1.02 norm. | 1.08 norm. |
| DLRNNDFSIVGSLPR [GlyRβ_Full_Positional_Scan_079] | 0.88 norm. | 0.92 norm. | 0.99 norm. |
| DLRPNDFSIVGSLPR [GlyRβ_Full_Positional_Scan_065] | 0.71 norm. | 0.89 norm. | 0.64 norm. |
| DLRQNDFSIVGSLPR [GlyRβ_Full_Positional_Scan_080] | 1.04 norm. | 0.89 norm. | 0.98 norm. |
| DLRRNDFSIVGSLPR [GlyRβ_Full_Positional_Scan_072] | 1.25 norm. | 0.97 norm. | 1.06 norm. |
| DLRSADFSIVGSLPR [GlyRβ_Full_Positional_Scan_081] | 0.76 norm. | 0.93 norm. | 0.9 norm. |
| DLRSCDFSIVGSLPR [GlyRβ_Full_Positional_Scan_097] | 0.83 norm. | 0.99 norm. | 0.76 norm. |
| DLRSDDFSIVGSLPR [GlyRβ_Full_Positional_Scan_090] | 0.98 norm. | 0.96 norm. | 0.94 norm. |
| DLRSEDFSIVGSLPR [GlyRβ_Full_Positional_Scan_091] | 0.96 norm. | 0.96 norm. | 1 norm. |
| DLRSFDFSIVGSLPR [GlyRβ_Full_Positional_Scan_087] | 0.55 norm. | 0.9 norm. | 0.75 norm. |
| DLRSGDFSIVGSLPR [GlyRβ_Full_Positional_Scan_082] | 0.77 norm. | 0.9 norm. | 0.9 norm. |
| DLRSHDFSIVGSLPR [GlyRβ_Full_Positional_Scan_093] | 0.72 norm. | 0.9 norm. | 0.75 norm. |
| DLRSIDFSIVGSLPR [GlyRβ_Full_Positional_Scan_083] | 0.55 norm. | 0.92 norm. | 0.81 norm. |
| DLRSKDFSIVGSLPR [GlyRβ_Full_Positional_Scan_094] | 0.66 norm. | 0.92 norm. | 0.79 norm. |
| DLRSLDFSIVGSLPR [GlyRβ_Full_Positional_Scan_084] | 0.69 norm. | 0.92 norm. | 0.86 norm. |
| DLRSMDFSIVGSLPR [GlyRβ_Full_Positional_Scan_098] | 0.91 norm. | 0.92 norm. | 0.85 norm. |
| DLRSNAFSIVGSLPR [GlyRβ_Full_Positional_Scan_101] | 0.77 norm. | 0.98 norm. | 1.04 norm. |
| DLRSNCFSIVGSLPR [GlyRβ_Full_Positional_Scan_117] | 0.64 norm. | 0.81 norm. | 0.8 norm. |
| DLRSNDASIVGSLPR [GlyRβ_Full_Positional_Scan_121, GlyR β 414-428 variant F420A] | 0.32 norm. | 0.48 norm. | 0.53 norm. |
| DLRSNDCSIVGSLPR [GlyRβ_Full_Positional_Scan_137, GlyR β 414-428 variant F420C] | 0.53 norm. | 0.67 norm. | 0.63 norm. |
| DLRSNDDSIVGSLPR [GlyRβ_Full_Positional_Scan_130, GlyR β 414-428 variant F420D] | 0.26 norm. | 0.45 norm. | 0.38 norm. |
| DLRSNDESIVGSLPR [GlyRβ_Full_Positional_Scan_131, GlyR β 414-428 variant F420E] | 0.2 norm. | 0.42 norm. | 0.32 norm. |
| DLRSNDFAIVGSLPR [GlyRβ_Full_Positional_Scan_141, GlyR β 414-428 variant S421A] | 0.35 norm. | 0.55 norm. | 0.79 norm. |
| DLRSNDFIIVGSLPR [GlyRβ_Full_Positional_Scan_143, GlyR β 414-428 variant S421I] | 0.18 norm. | 0.4 norm. | 0.41 norm. |
| DLRSNDFLIVGSLPR [GlyRβ_Full_Positional_Scan_144, GlyR β 414-428 variant S421L] | 0.2 norm. | 0.6 norm. | 0.54 norm. |

Further lines, results first:

| Native geph Binding Intensity [norm.] [1] | gephE Binding Intensity [norm.] [2] | Fl-geph Binding Intensity [norm.] [3] | Sequence |
| --- | --- | --- | --- |
| 0.36 norm. | 0.66 norm. | 0.71 norm. | DLRSNDFCIVGSLPR [GlyRβ_Full_Positional_Scan_157, GlyR β 414-428 variant S421C] |
| 0.29 norm. | 0.53 norm. | 0.9 norm. | DLRSNDFDIVGSLPR [GlyRβ_Full_Positional_Scan_150, GlyR β 414-428 variant S421D] |
| 0.2 norm. | 0.47 norm. | 0.79 norm. | DLRSNDFEIVGSLPR [GlyRβ_Full_Positional_Scan_151, GlyR β 414-428 variant S421E] |
| 0.18 norm. | 0.53 norm. | 0.64 norm. | DLRSNDFFIVGSLPR [GlyRβ_Full_Positional_Scan_147, GlyR β 414-428 variant S421F] |
| 0.48 norm. | 0.8 norm. | 0.95 norm. | DLRSNDFHIVGSLPR [GlyRβ_Full_Positional_Scan_153, GlyR β 414-428 variant S421H] |
| 0.24 norm. | 0.65 norm. | 0.92 norm. | DLRSNDFKIVGSLPR [GlyRβ_Full_Positional_Scan_154, GlyR β 414-428 variant S421K] |
| 0.54 norm. | 0.73 norm. | 0.88 norm. | DLRSNDFMIVGSLPR [GlyRβ_Full_Positional_Scan_158, GlyR β 414-428 variant S421M] |
| 0.64 norm. | 0.72 norm. | 1.03 norm. | DLRSNDFNIVGSLPR [GlyRβ_Full_Positional_Scan_159, GlyR β 414-428 variant S421N] |
| 0.25 norm. | 0.48 norm. | 0.66 norm. | DLRSNDFPIVGSLPR [GlyRβ_Full_Positional_Scan_145, GlyR β 414-428 variant S421P] |
| 0.47 norm. | 0.66 norm. | 0.9 norm. | DLRSNDFQIVGSLPR [GlyRβ_Full_Positional_Scan_160, GlyR β 414-428 variant S421Q] |
| 0.23 norm. | 0.8 norm. | 0.92 norm. | DLRSNDFRIVGSLPR [GlyRβ_Full_Positional_Scan_152, GlyR β 414-428 variant S421R] |
| 0.52 norm. | 0.56 norm. | 0.81 norm. | DLRSNDFSAVGSLPR [GlyRβ_Full_Positional_Scan_161, GlyR β 414-428 variant I422A] |
| 0.17 norm. | 0.29 norm. | 0.29 norm. | DLRSNDFSDVGSLPR [GlyRβ_Full_Positional_Scan_170, GlyR β 414-428 variant I422D] |
| 0.13 norm. | 0.24 norm. | 0.25 norm. | DLRSNDFSEVGSLPR [GlyRβ_Full_Positional_Scan_171, GlyR β 414-428 variant I422E] |
| 0.27 norm. | 0.51 norm. | 0.76 norm. | DLRSNDFSFVGSLPR [GlyRβ_Full_Positional_Scan_167, GlyR β 414-428 variant I422F] |
